Literature values, collected in US20170071869A1 (Teva Pharmaceutical Industries Ltd., priority 2014, published 2017).

Columns and labels:
[1] = test system: genes related to antigen presentation (NFkB pathway); details: mainly via the NFkB pathway

In the case of `CCN(C(=O)c1c(O)c2c(Cl)cccc2n(C)c1=O)c1ccccc1` [Laquinimod], the “suppression of genes related to antigen presentation and corresponding inflammatory pathways” value [1] is listed as “induced suppression of genes related to antigen presentation” and the oral bioavailability is listed as “high oral bioavailability”.
